pIC50: −log10 of the molar value.
Columns and labels:
HIV protease = biological target: T1, HIV protease (Human immunodeficiency virus type 1 group M subtype B, UniProt P04585); experiment: HIV protease enzyme assay (fluorogenic substrate 2-aminobenzoyl-Ile-Nle-Phe(p-NO2)-Gln-ArgNH2); assay type: biochemical; conditions: substrate 80 µM, enzyme 12.3 nanomolar, pH 6.4, ambient temperature
T1 construct: HIV protease is diluted in the assay buffer to a final enzyme concentration of 12.3 nanomolar, based on a molecular weight of 10,780
Description: The compounds of the present invention are effective HIV protease inhibitors. Utilizing an enzyme assay as described below, the compounds set forth in the examples herein disclosed inhibited the HIV enzyme. The preferred compounds of the present invention and their calculated IC50 (inhibiting concentration 50%, i.e., the concentration at which the inhibitor compound reduces enzyme activity by 50%) values are shown in Table 18. The enzyme method is described below. The substrate is 2-aminobenzoyl-Ile-Nle-Phe(p-NO2)-Gln-ArgNH2. The positive control is MVT-101 (Miller, M. et al, Science, 246, 1149 (1989)] The assay conditions are as follows: Assay buffer: • 20 mM sodium phosphate, pH 6.4 • 20% glycerol • 1 mM EDTA • 1 mM DTT • 0.1% CHAPS
The above described substrate is dissolved in DMSO, then diluted 10 fold in assay buffer. Final substrate concentration in the assay is 80 µM.
HIV protease is diluted in the assay buffer to a final enzyme concentration of 12.3 nanomolar, based on a molecular weight of 10,780.
The final concentration of DMSO is 14% and the final concentration of glycerol is 18%. […] The increase in fluorescence is monitored at 4 time points (0, 8, 16 and 24 minutes) at ambient temperature. […]

HIV-1 = experiment: CEM cell assay: HIV inhibition in acutely infected cells, tetrazolium (MTT) based colorimetric assay; conditions: Table 19; test concentration not given; CEM cells infected with HIV-1, 7 days
Experimental: The effectiveness of the compounds listed in Table 19 were determined in the above-described enzyme assay and in a CEM cell assay.
Methods 20, 309-321 (1988).

Structure (SMILES): CC(C)CCN(C[C@@H](O)[C@H](Cc1ccccc1)NC(=O)[C@H](CC(N)=O)NC(=O)c1ccc2ccccc2n1)C(=O)CC(C)(C)C (relative stereo) [Compound 1, Butanediamide, N^1-[3-[[[(2,2-dimethyl)propyl]carbonyl](3-methylbutyl)amino]-2-hydroxy-1-(phenylmethyl)propyl]-2-[(2-quinolinylcarbonyl)amino]-, [1S-[1R*(2R*),2S*]]]
- pIC50 (HIV protease): 7.68
- Inhibition (HIV-1): 100%

Structure (SMILES): CCCCC(=O)N(CC1CCCCC1)C[C@@H](O)[C@H](Cc1ccccc1)NC(=O)[C@H](CC(N)=O)NC(=O)OCc1ccccc1 (relative stereo) [Compound 2, Butanediamide, N^1-[3-[[butylcarbonyl](cyclohexylmethyl)amino]-2-hydroxy-1-(phenylmethyl)propyl]-2-[(phenylmethyloxy)carbonyl)amino]-, [1S-[1R*(2R*),2S*]]]
- pIC50 (HIV protease): 6.16

From patent EP0731088B1, “Retroviral protease inhibitors” (MONSANTO COMPANY, priority 1990, dated 1992)
